pIC50, pKi: −log10 of the molar value.
Columns and labels:
L1210 = assay: Concentration inhibiting L1210 cell growth in culture; format: functional, cell-based; conditions: Mus musculus
[1] = target: reduced folate carrier (Mus musculus); assay: Binding affinity towards Dihydrofolate reductase derived from L1210 cells using [3H]- MTX as the radioligand
Dihydrofolate reductase [2] = target: T1, Dihydrofolate reductase (Mus musculus, UniProt P00375); assay: Concentration inhibiting dihydrofolate reductase derived from L1210 cells; format: cell-based
T1 sequence (P00375 whole entry): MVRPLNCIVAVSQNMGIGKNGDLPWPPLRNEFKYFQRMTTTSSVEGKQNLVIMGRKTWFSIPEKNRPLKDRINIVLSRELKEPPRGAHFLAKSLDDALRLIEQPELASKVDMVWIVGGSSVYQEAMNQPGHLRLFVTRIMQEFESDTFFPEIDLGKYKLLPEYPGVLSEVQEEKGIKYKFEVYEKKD

Dihydrofolate reductase [3] = target: T1, Dihydrofolate reductase; assay: Concentration inhibiting Dihydrofolate reductase derived from L1210 cells; format: cell-based
[4] = Concentration inhibiting Glycinamide ribotide formyltransferase of Lactobacillus casei; set-up: species or system Lacticaseibacillus casei
Thymidylate synthase = target: T2, Thymidylate synthase (Lactobacillus casei, UniProt P00469); assay: Concentration inhibiting thymidylate synthase enzyme of Lactobacillus casei; set-up: species or system Lacticaseibacillus casei
T2 sequence (P00469 whole entry): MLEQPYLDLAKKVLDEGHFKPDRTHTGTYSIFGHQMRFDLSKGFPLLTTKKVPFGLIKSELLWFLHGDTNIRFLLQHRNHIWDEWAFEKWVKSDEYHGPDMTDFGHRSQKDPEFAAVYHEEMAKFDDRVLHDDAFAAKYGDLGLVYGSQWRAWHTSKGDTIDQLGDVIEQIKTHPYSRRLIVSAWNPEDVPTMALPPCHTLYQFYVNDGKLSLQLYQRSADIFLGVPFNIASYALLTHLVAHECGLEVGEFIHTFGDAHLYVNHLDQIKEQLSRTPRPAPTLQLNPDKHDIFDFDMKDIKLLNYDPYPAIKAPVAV

Dihydrofolate reductase [5] = target: T3, Dihydrofolate reductase (Homo sapiens, UniProt P00374); assay: Inhibitory activity towards dihydrofolate reductase derived from human manca leukemia cells
T3 sequence (P00374 whole entry): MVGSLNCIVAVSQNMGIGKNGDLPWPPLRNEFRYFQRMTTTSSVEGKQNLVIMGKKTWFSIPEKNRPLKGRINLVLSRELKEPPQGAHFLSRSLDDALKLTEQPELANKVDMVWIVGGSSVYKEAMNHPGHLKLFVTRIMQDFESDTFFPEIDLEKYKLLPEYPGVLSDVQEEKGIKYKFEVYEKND

Row | SMILES | pIC50 (L1210) | pIC50 (Thymidylate synthase) | also measured
1 | Nc1nc(N)c2nc(CCc3ccc(C(=O)N[C@@H](CCC(=O)O)C(=O)O)cc3)cnc2n1 | 8.82 |  | pKi [1]: 5.92; pKi (Dihydrofolate reductase [2]): 11.47
2 | CCC(Cc1ccc(C(=O)NC(CCC(=O)O)C(=O)O)cc1)c1cnc2nc(N)nc(N)c2n1 (configuration not stated) | 8.33 | < 4.00 | pKi (Dihydrofolate reductase [3]): 11.26; pIC50 [4]: < 4.30
3 | CC(Cc1ccc(C(=O)NC(CCC(=O)O)C(=O)O)cc1)c1cnc2nc(N)nc(N)c2n1 (configuration not stated) | 9.62 | < 4.00 | pIC50 (Dihydrofolate reductase [5]): 7.40
4 | CN(Cc1cnc2nc(N)nc(N)c2n1)c1ccc(C(=O)N[C@@H](CCC(=O)O)C(=O)O)cc1 [METHOTREXATE] | 8.30 |  | 
5 | CCC(Cc1cnc2nc(N)nc(N)c2n1)c1ccc(C(=O)N[C@@H](CCC(=O)O)C(=O)O)cc1 (some centres not stated) [EDATREXATE] | 9.19 |  | 

— ChEMBL document CHEMBL1124936, “Synthesis and antifolate properties of 9-alkyl-10-deazaminopterins” (J Med Chem, 1990)
